# In patent US20190390220A1, “Compositions and Methods of Increasing Aphid Resistance in Transgenic Plants” (Boyce Thompson Institute, priority 2018, published 2019):
# Key:
# [1] = test system: A. glycines; assay: flavonoid in vitro feeding bioassay on artificial diet, soybean aphid; type: in vivo, Aphis glycines; settings: artificial diet with 0.01% apigenin; compared with control diet (DMSO); adults
# Description: (§1) A pea aphid colony (A. pisum strain CWR09/18, kindly supplied by Angela Douglas, Cornell University) was reared on faba bean plants (Viciafaba, var. Windsor; Johnny's Selected Seeds, Winslow, Me., USA) which were grown in Metromix 200 (Scotts, Marysville, Ohio, USA) in a growth chamber at the same condition with soybeans in insect rearing room at 25° C. with a 12:12 h day:night cycle (64). A soybean aphid colony (A. glycines), kindly supplied by Gustavo Macintosh at Iowa State University, was reared on soybean plants (G. max var. William 82) that were grown in same soil and conditions as described for the pea aphid colony.
# (§2) For flavonoid in vitro feeding bioassays, the effects of three isoflavones, daidzein, formononetin and prunetin, as well as two flavones, apigenin and kaempferol on A. glycines and A. pisum adults were tested by rearing 30 insects on an artificial diet (65) in membrane feeding tubes. Adults were fed an artificial diet containing one of the following treatments, 0.01% apigenin, 0.2% daidzein, 0.01% prunetin, 0.04% formononetin or 0.02% kaempferol for 6 days in an insect rearing room (25° C. with a 12:12 h day:night cycle). […] The compound concentrations for diet experiments were based on their measured concentrations in soybean leaves. After 6 days of feeding, the number of surviving aphids was counted.
# [2] = test system: A. pisum; assay: flavonoid in vitro feeding bioassay on artificial diet, pea aphid; type: in vivo, Acyrthosiphon pisum; settings: artificial diet with 0.2% daidzein, 0.01% prunetin or 0.04% formononetin; compared with control diet (DMSO) or flavones; adults
# Description: as §1, §2
# [3] = test system: Anticarsia gemmatalis; settings: constitutively produced in soybean PI 227697 leaves; cited from earlier work
# [4] = test system: Trichoplusia ni; settings: constitutively produced in soybean PI 227697 leaves; cited from earlier work
compound,measurement,setting,value
O=c1cc(-c2ccc(O)cc2)oc2cc(O)cc(O)c12 [apigenin],mortality of SBA,[1],increased
O=c1c(-c2ccc(O)cc2)coc2cc(O)ccc12 [daidzein],mortality of PA,[2],higher mortality
O=c1c(-c2ccc(O)cc2)coc2cc(O[C@@H]3O[C@H](CO)[C@@H](O)[C@H](O)[C@H]3O)cc(O)c12 [genistin],performance of Anticarsia gemmatalis larvae,[3],negatively affect the performance
same,performance of Trichoplusia ni larvae,[4],negatively affect the performance
COc1cc(O)c2c(=O)c(-c3ccc(O)cc3)coc2c1 [prunetin],mortality of PA,[2],higher mortality
